What is called pEC50 is the negative decadic logarithm of the EC50, by convention in mol/L.

pEC50: −log10 of the molar value. Some results are limits rather than exact numbers.

Experimental findings from patent publication US20250042916A1 (ACONCAGUA BIO, INC., priority 2023, published 2025) are described below.

human calcitonin receptor (CTR) and RAMP3 (AMY3) in COS-7 cells, sequence (P30988 25-474): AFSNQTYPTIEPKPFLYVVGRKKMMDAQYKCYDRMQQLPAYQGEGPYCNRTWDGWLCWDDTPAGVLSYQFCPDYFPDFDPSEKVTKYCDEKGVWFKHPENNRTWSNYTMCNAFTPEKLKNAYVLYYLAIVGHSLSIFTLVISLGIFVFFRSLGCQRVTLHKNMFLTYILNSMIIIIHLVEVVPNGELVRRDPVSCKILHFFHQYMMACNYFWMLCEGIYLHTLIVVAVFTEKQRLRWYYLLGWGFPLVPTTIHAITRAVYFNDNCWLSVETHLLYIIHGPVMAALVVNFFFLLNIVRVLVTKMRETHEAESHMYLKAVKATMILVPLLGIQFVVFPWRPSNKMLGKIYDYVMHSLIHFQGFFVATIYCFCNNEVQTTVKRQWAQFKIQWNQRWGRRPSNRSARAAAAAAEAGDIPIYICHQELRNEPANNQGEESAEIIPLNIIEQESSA
human calcitonin receptor (CTR) and RAMP3 (AMY3) in COS-7 cells, sequence (O60896 24-148): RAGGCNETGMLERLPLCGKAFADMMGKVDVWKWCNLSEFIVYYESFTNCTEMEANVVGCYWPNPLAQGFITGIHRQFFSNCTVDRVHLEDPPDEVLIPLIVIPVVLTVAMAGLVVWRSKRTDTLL

The assay has as its target human calcitonin receptor (CTR) and RAMP3 (AMY3) in COS-7 cells (Homo sapiens, UniProt O60896+P30988). Put plainly: Amylin Receptor cAMP Assay I. The class given is cell-based. To be noted: values marked *: Amylin Receptor cAMP Assay I; COS-7/AMY3 cells; read-out: Amylin Receptor cAMP Stimulation Activity: EC50. An excerpt:
Amylin Receptor cAMP Assay I
AMYRs are heterodimers of the class B calcitonin (CT) G-protein-coupled receptor (CTR) and receptor activity-modifying proteins (RAMPs). All three RAMPs can interact with the CTR and form AMY1, AMY2, AMY3 with RAMP1, RAMP2 and RAMP3, respectively. Like other class B1 GPCRs, the CT receptor family is canonically coupled to Gs-mediated cAMP production, and measurement of cAMP accumulation has been the primary assay used to determine peptide selectivity and potency.
To optimize functional activity directed toward Gas coupling, COS-7 cells were stably transfected with human calcitonin receptor (CTR) and RAMP3, simultaneously. 100× concentration of compound working solutions were prepared (Agilent Technologies Bravo) with 4-fold serial dilution in 384-well Echo LDV plate (Labcyte, Cat #LP-0200). 100 nL/well 100× concentration of compound working solutions were moved to 384-well white low volume plate (Greiner, Cat #784075) using Labcyte ECHO550. 1×10^5 cells/mL COS-7/CTR or COS-7/AMY3 (HD Biosciences) cell suspensions prepared with assay buffer [DPBS containing 0.5 mM IBMX (Sigma, Cat #15879) and 0.1% BSA (GENVIEW, Cat #FA016-100 g)], 10 μL cell suspensions were added to each well of previous generated assay plate which already contains 100 nL compound at 100× concentration using ThermoFisher Multidrop Combi (1000 cells/well). Seal the plate and incubate at 37° C. with 5% CO2 for 30 min.
After incubation, the cAMP assay signal was generated using cAMP Hi-range Kit (Cisbio). 5 μL cAMP-d2 working solution was added to each well, followed by 5 μL Anti-cAMP antibody-cryptate working solution which was added to each well using ThermoFisher Multidrop Combi. The samples were then incubated at room temperature for 1 hour protected from light. the fluorescence was read at 665 and 615 nm with Reader PerkinElmer EnVision.
With `Cc1noc(-c2c(CCc3ccc(F)cc3)nc(CC(C)C)c(C(N)=O)c2-c2ccc(C(=O)N[C@@H]3CCc4ccccc43)s2)n1` [Compound 101, N—[(R)-1-indanyl]-5-{5-carbamoyl-2-[2-(p-fluorophenyl)ethyl]-6-isobutyl-3-(3-methyl-1,2,4-oxadiazol-5-yl)-4-pyridyl}-2-thenamide], the pEC50 was 7.07.

Turning to `Cc1noc(-c2c(CCc3ccc(F)cc3)nc(CC(C)C)c(C(N)=O)c2-c2ccc(C(=O)NCc3ccc(F)c(F)c3)s2)n1` [Compound 102, N-(3,4-difluorophenyl)methyl-5-{5-carbamoyl-2-[2-(p-fluorophenyl)ethyl]-6-isobutyl-3-(3-methyl-1,2,4-oxadiazol-5-yl)-4-pyridyl}-2-thenamide], the pEC50 was 7.07.

As for `CC(C)Cc1nc(CCc2ccc(F)cc2)c(-c2nc(C(C)C)no2)c(-c2ccc(C(=O)NCc3ccc(F)c(F)c3)s2)c1C(N)=O` [Compound 103, N-(3,4-difluorophenyl)methyl-5-{5-carbamoyl-2-[2-(p-fluorophenyl)ethyl]-6-isobutyl-3-(3-isopropyl-1,2,4-oxadiazol-5-yl)-4-pyridyl}-2-thenamide], the pEC50 is 6.50.

With `Cc1noc(-c2c(CCc3ccc(F)cc3)nc(CC(C)C)c(C(N)=O)c2-c2ccc(-c3cn(Cc4ccc(F)c(F)c4)nn3)s2)n1` [Compound 104, 4-(5-{1-[(3,4-difluorophenyl)methyl]-1H-1,2,3-triazol-4-yl}-2-thienyl)-6-[2-(p-fluorophenyl)ethyl]-2-isobutyl-5-(3-methyl-1,2,4-oxadiazol-5-yl)nicotinamide], the pEC50 was 6.35.

As to `CC(C)Cc1nc(CCc2ccc(F)cc2)c(-c2nc(C(F)(F)F)no2)c(-c2ccc(C(=O)NCc3ccc(F)c(F)c3)s2)c1C(N)=O` [Compound 105, N-(3,4-difluorophenyl)methyl-5-{5-carbamoyl-2-[2-(p-fluorophenyl)ethyl]-6-isobutyl-3-[3-(trifluoromethyl)-1,2,4-oxadiazol-5-yl]-4-pyridyl}-2-thenamide], the pEC50 is 6.23.

For the molecule `Cc1nnc(-c2c(CCCC(C)C)nc(CC(C)C)c(C(N)=O)c2-c2ccc(C(=O)NCc3ccc(F)c(F)c3)s2)o1` [Compound 108, 4-(5-((3,4-difluorobenzyl)carbamoyl)thiophen-2-yl)-2-isobutyl-5-(5-methyl-1,3,4-oxadiazol-2-yl)-6-(4-methylpentyl)nicotinamide], the pEC50 is 7.15.

Consider `Cc1nnc(-c2c(CCC3CCCCC3)nc(CC(C)C)c(C(N)=O)c2-c2ccc(C(=O)NCc3ccc(F)c(F)c3)s2)o1` [Compound 109, 6-(2-cyclohexylethyl)-4-(5-((3,4-difluorobenzyl)carbamoyl)thiophen-2-yl)-2-isobutyl-5-(5-methyl-1,3,4-oxadiazol-2-yl)nicotinamide], for which the pEC50 is 7.70.

Regarding `Cc1nnc(-c2c(Cc3ccc(F)cc3)nc(CC(C)C)c(C(N)=O)c2-c2ccc(C(=O)NCc3ccc(F)c(F)c3)s2)o1` [Compound 110, 4-(5-((3,4-difluorobenzyl)carbamoyl)thiophen-2-yl)-6-(4-fluorobenzyl)-2-isobutyl-5-(5-methyl-1,3,4-oxadiazol-2-yl)nicotinamide], the pEC50 is 7.13.

Take `Cc1nnc(-c2c(CC(C)C)nc(CC(C)C)c(C(N)=O)c2-c2ccc(C(=O)NCc3ccc(F)c(F)c3)s2)o1` [Compound 111, 4-(5-((3,4-difluorobenzyl)carbamoyl)thiophen-2-yl)-2,6-diisobutyl-5-(5-methyl-1,3,4-oxadiazol-2-yl)nicotinamide]: the pEC50 was 6.19.

On to `CCc1nc(CC(C)C)c(C(N)=O)c(-c2ccc(C(=O)NCc3ccc(F)c(F)c3)s2)c1-c1nnc(C)o1` [Compound 112, 4-[5-[(3,4-difluorophenyl)methylcarbamoyl]-2-thienyl]-6-ethyl-2-isobutyl-5-(5-methyl-1,3,4-oxadiazol-2-yl)pyridine-3-carboxamide], for which the pEC50 is below 4.94.

Turning to `COc1cccc(CNC(=O)c2ccc(-c3c(C(N)=O)c(CC(C)C)nc(CCc4ccc(F)cc4)c3-c3nnc(C)o3)s2)c1` [Compound 113, N-(m-methoxyphenyl)methyl-5-{5-carbamoyl-2-[2-(p-fluorophenyl)ethyl]-6-isobutyl-3-(5-methyl-1,3,4-oxadiazol-2-yl)-4-pyridyl}-2-thenamide], the pEC50 was 8.21.

In the case of `COc1ccc(CNC(=O)c2ccc(-c3c(C(N)=O)c(CC(C)C)nc(CCc4ccc(F)cc4)c3-c3nnc(C)o3)s2)cc1` [Compound 114, N-(p-methoxyphenyl)methyl-5-{5-carbamoyl-2-[2-(p-fluorophenyl)ethyl]-6-isobutyl-3-(5-methyl-1,3,4-oxadiazol-2-yl)-4-pyridyl}-2-thenamide], the pEC50 is 6.49.

Regarding `Cc1nnc(-c2c(CCc3ccc(F)cc3)nc(CC(C)C)c(C(N)=O)c2-c2ccc(C(=O)NCc3ccccc3)s2)o1` [Compound 115, N-benzyl-5-{5-carbamoyl-2-[2-(p-fluorophenyl)ethyl]-6-isobutyl-3-(5-methyl-1,3,4-oxadiazol-2-yl)-4-pyridyl}-2-thenamide], the pEC50 was 7.07.

With `COc1cc(F)cc(CNC(=O)c2ccc(-c3c(C(N)=O)c(CC(C)C)nc(CCc4ccc(F)cc4)c3-c3nnc(C)o3)s2)c1` [Compound 116, N-[(3-fluoro-5-methoxyphenyl)methyl]-5-{5-carbamoyl-2-[2-(p-fluorophenyl)ethyl]-6-isobutyl-3-(5-methyl-1,3,4-oxadiazol-2-yl)-4-pyridyl}-2-thenamide], the pEC50 is 7.86.

Consider `COc1cc(CNC(=O)c2ccc(-c3c(C(N)=O)c(CC(C)C)nc(CCc4ccc(F)cc4)c3-c3nnc(C)o3)s2)ccc1F` [Compound 117, N-[(4-fluoro-3-methoxyphenyl)methyl]-5-{5-carbamoyl-2-[2-(p-fluorophenyl)ethyl]-6-isobutyl-3-(5-methyl-1,3,4-oxadiazol-2-yl)-4-pyridyl}-2-thenamide], for which the negative-log EC50 (pEC50) is 7.40.

For `Cc1nnc(-c2c(CCc3ccc(F)cc3)nc(CC(C)C)c(C(N)=O)c2-c2ccc(C(=O)N[C@H]3CCc4ccccc43)s2)o1` [Compound 118, (S)-4-(5-((2,3-dihydro-1H-inden-1-yl)carbamoyl)thiophen-2-yl)-6-(4-fluorophenethyl)-2-isobutyl-5-(5-methyl-1,3,4-oxadiazol-2-yl)nicotinamide], the pEC50 was 6.68.

On to `Cc1nnc(-c2c(CCc3ccc(F)cc3)nc(CC(C)C)c(C(N)=O)c2-c2ccc(C(=O)N[C@@H]3CCc4c(F)cccc43)s2)o1` [Compound 119, (R)-4-(5-((4-fluoro-2,3-dihydro-1H-inden-1-yl)carbamoyl)thiophen-2-yl)-6-(4-fluorophenethyl)-2-isobutyl-5-(5-methyl-1,3,4-oxadiazol-2-yl)nicotinamide], for which the pEC50 was 8.57.

In the case of `Cc1nnc(-c2c(CCc3ccc(F)cc3)nc(CC(C)C)c(C(N)=O)c2-c2ccc(C(=O)N[C@@H]3CCc4cc(F)ccc43)s2)o1` [Compound 120, (R)-4-(5-((5-fluoro-2,3-dihydro-1H-inden-1-yl)carbamoyl)thiophen-2-yl)-6-(4-fluorophenethyl)-2-isobutyl-5-(5-methyl-1,3,4-oxadiazol-2-yl)nicotinamide], the pEC50 was 8.77.

Consider `Cc1nnc(-c2c(CCc3ccc(F)cc3)nc(CC(C)C)c(C(N)=O)c2-c2ccc(C(=O)N[C@@H]3CCc4ccc(F)cc43)s2)o1` [Compound 121, (R)-4-(5-((6-fluoro-2,3-dihydro-1H-inden-1-yl)carbamoyl)thiophen-2-yl)-6-(4-fluorophenethyl)-2-isobutyl-5-(5-methyl-1,3,4-oxadiazol-2-yl)nicotinamide], for which the pEC50 is 9.00.

On to `Cc1nnc(-c2c(CCc3ccc(F)cc3)nc(CC(C)C)c(C(N)=O)c2-c2ccc(C(=O)N[C@@H]3CCc4ncccc43)s2)o1` [Compound 123, (R)-4-(5-((6,7-dihydro-5H-cyclopenta[b]pyridin-5-yl)carbamoyl)thiophen-2-yl)-6-(4-fluorophenethyl)-2-isobutyl-5-(5-methyl-1,3,4-oxadiazol-2-yl)nicotinamide], for which the negative logarithm of the EC50 (pEC50) is 7.43.

For the molecule `Cc1nnc(-c2c(CCc3ccc(F)cc3)nc(CC(C)C)c(C(N)=O)c2-c2ccc(C(=O)N[C@H]3CCc4ncccc43)s2)o1` [Compound 124, (S)-4-(5-((6,7-dihydro-5H-cyclopenta[b]pyridin-5-yl)carbamoyl)thiophen-2-yl)-6-(4-fluorophenethyl)-2-isobutyl-5-(5-methyl-1,3,4-oxadiazol-2-yl)nicotinamide], the pEC50 is 7.45.

As to `Cc1nnc(-c2c(CCc3ccc(F)cc3)nc(CC(C)C)c(C(N)=O)c2-c2ncc(C(=O)NCc3ccc(F)c(F)c3)s2)o1` [Compound 125, N-(3,4-difluorophenyl)methyl-2-{5-carbamoyl-2-[2-(p-fluorophenyl)ethyl]-6-isobutyl-3-(5-methyl-1,3,4-oxadiazol-2-yl)-4-pyridyl}-1,3-thiazole-5-carboxamide], the pEC50 is 6.67.
